In patent EP1801112A1, “Bicyclic pyrimidines and bicyclic 3,4-dihydropyrimidines as inhibitors of cellular proliferation” (Warner-Lambert Company LLC, priority 1998, dated 1999):
Like-named read-outs stand apart in the source and are kept apart here.

Experiments:
[1] = test system: human umbilical vein endothelial cells; assay: Human Umbilical Vein Endothelial Cell (HUVEC) Proliferation Assay; assay type: cell-based; details: 96 h, four days incubation, Sulphorhodamine B staining
Method: The compounds of Formula I are useful for treating cell proliferative disorders concerning angiogenesis and have been evaluated in a human umbilical vein endothelial cell in vitro assay. The assay described below is used to determine the anti-proliferative effects of the invention compounds on human umbilical vein endothelial cells, and the results are shown in Table 7.
Human Umbilical Vein Endothelial Cell (HUVEC) Proliferation Assay
Ninety-six well tissue culture plates are seeded with 100 µL of cells in all wells of rows A->G with row H remaining empty as a blank. HUVEC (Clonetics, San Diego, CA) are grown in endothelial growth medium (EGM media, Clonetics), containing 2% fetal bovine serum. The cell seed density for HUVEC cells is 20,000 per mL. C6 cells (ATCC Cat. No. CCL-107) are seeded at 6000 per mL in F10 medium (nutrient mixture Hemes) supplemented with 15% horse serum, 2.5% fetal bovine serum, and 6.0 mL 200 mM Glutamine per 600 mL medium. A90 cells (Suny, Buffalo, NY) are also seeded at 6000 per mL, but they are grown in RPMI 1640 (Roswell Park Memorial Institute) plus 10% fetal bovine serum. Unless noted otherwise, tissue culture media and components are from GIBCO. The cells are allowed to incubate at 37°C, 5% CO2, and 100% relative humidity for 16-24 hours.
Invention compounds are prepared by dissolving them in DMSO at a concentration of 5 mM, followed by dilution to 50 µM in EGM media. One hundred microliters of the compounds are applied to duplicate wells in column 1 of the previously prepared cell plates. Column 1 row H receives 100 µL of EGM media. The compounds in column 1 are diluted across the plates using serial twofold dilutions.
The plates are incubated as above for an additional four days before being stained with Sulphorhodamine B. Staining is performed as follows: The media is removed from the plates, and the cells are fixed using 10% trichloroacetic acid for 30 minutes at 4°C. Following fixation, the plates are washed five times with distilled water after which 100 µL of Sulphorhodamine B is added to each well. Sulphorhodamine B is dissolved in 1% acetic acid to a concentration of .075%. Following staining, excess stain is removed from the wells, and the plates are washed four times with 1% acetic acid. The plates are allowed to air dry before the bound dye is solubilized in 100 µL of 10 mM unbuffered TRIS base. Absorbance is measured on a 96 well plate reader at […] using a reference filter wavelength of 630 nm. […] Sulphorhodamine B and TRIS are from Sigma Chemical Company. Acetic acid and trichloroacetic acid are from Mallinckrodt AR.

[2] = molecular target: T1, FGF-1 (flg) receptor tyrosine kinase (Homo sapiens, UniProt P11362); assay: FGF Receptor Tyrosine Kinase Assay; assay type: biochemical; details: glutamate-tyrosine co-polymer substrate, 50 µM ATP
T1 construct: amplify a fragment of DNA that codes for the intracellular tyrosine kinase domain; made in house; host or cells: SF9 insect cells (baculovirus); crude cell lysate used
T1 sequence (P11362 478-767 limits assumed): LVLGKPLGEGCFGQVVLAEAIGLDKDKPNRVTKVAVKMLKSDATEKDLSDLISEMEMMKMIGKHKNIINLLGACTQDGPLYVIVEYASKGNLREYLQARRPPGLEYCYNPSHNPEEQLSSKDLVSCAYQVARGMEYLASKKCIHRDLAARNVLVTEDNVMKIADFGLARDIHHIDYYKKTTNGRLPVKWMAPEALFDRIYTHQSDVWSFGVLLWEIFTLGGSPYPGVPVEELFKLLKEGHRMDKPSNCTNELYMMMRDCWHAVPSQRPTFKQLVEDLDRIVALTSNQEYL

[3] = molecular target: T2, PDGF-β receptor tyrosine kinase (Mus musculus, UniProt P05622); assay: PDGF Receptor Tyrosine Kinase Assay; assay type: biochemical; details: glutamate-tyrosine co-polymer substrate, 50 µM ATP
T2 construct: amplify a fragment of DNA that codes for the intracellular tyrosine kinase domain; made in house; host or cells: SF9 insect cells (baculovirus); crude cell lysate used
T2 sequence (P05622 599-961 limits assumed): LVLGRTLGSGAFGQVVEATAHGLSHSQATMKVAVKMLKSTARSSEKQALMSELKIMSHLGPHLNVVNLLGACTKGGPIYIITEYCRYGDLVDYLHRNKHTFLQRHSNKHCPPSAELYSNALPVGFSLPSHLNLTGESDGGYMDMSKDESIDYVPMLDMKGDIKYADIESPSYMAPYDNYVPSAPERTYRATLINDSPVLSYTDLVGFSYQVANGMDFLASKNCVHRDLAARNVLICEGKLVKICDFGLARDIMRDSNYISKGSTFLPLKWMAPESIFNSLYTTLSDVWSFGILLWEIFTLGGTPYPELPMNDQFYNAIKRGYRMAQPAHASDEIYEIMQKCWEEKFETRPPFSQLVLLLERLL
Source text: PDGF and FGF Receptor Tyrosine Kinase Assays
Full-length cDNAs for the mouse PDGF-β and human FGF-1 (flg) receptor tyrosine kinases were obtained from J. Escobedo and prepared as described in J. Biol. Chem., 1991;262:1482-1487. PCR primers were designed to amplify a fragment of DNA that codes for the intracellular tyrosine kinase domain. The fragment was inserted into a baculovirus vector, cotransfected with AcMNPV DNA, and the recombinant virus isolated. SF9 insect cells were infected with the virus to overexpress the protein, and the cell lysate was used for the assay. Assays were performed in 96-well plates (100 µL/incubation/well), and conditions were optimized to measure the incorporation of ^32P from γ^32P-ATP into a glutamate-tyrosine co-polymer substrate. Briefly, to each well was added 82.5 µL of incubation buffer containing 25 mM Hepes (pH 7.0), 150 mM NaCl, 0.1% Triton X-100, 0.2 mM PMSF, 0.2 mM Na3VO4, 10 mM MnCl2, and 750 µg/mL of Poly (4:1) glutamate-tyrosine followed by […] of inhibitor and 5 µL of enzyme lysate (7.5 µg/µL FGF-TK or 6.0 µg/µL PDGF-TK) to initiate the reaction. Following a 10 minute incubation at 25°C, […] of γ^32P-ATP (0.4 µCi plus 50 µM ATP) was added to each well, and samples were incubated for an additional 10 minutes at 25°C. The reaction was terminated by the addition of 100 µL of 30% trichloroacetic acid (TCA) containing 20 mM sodium pyrophosphate and precipitation of material onto glass fiber mats (Wallac). Filters were washed three times with 15% TCA containing 100 mM sodium pyrophosphate, and the radioactivity retained on the filters counted in a Wallac 1250 Betaplate reader. Nonspecific activity was defined as radioactivity retained on the filters following incubation of samples with buffer alone (no enzyme). Specific enzymatic activity (enzyme plus buffer) was defined as total activity minus nonspecific activity. […]

cdk2/cyclinE = cdk2/cyclinE (Homo sapiens, UniProt P24941); assay: Cyclin-Dependent Kinase Assay cdk2/cyclinE; assay type: biochemical
cdk4/D = cdk4/D (Homo sapiens, UniProt P11802); assay: Cyclin-Dependent Kinase 4 (cdk4) Assay; assay type: biochemical
Chain of cdk4/D (P11802 whole entry): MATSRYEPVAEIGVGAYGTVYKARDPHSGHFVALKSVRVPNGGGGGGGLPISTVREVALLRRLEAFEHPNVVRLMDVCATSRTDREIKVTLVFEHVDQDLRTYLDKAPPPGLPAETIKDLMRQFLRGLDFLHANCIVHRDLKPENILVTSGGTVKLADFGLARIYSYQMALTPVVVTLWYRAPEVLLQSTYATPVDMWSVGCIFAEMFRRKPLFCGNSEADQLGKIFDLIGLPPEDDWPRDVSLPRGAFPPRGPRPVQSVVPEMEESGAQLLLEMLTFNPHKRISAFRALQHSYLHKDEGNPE
Chain of cdk4/D (P24385 whole entry, further chain): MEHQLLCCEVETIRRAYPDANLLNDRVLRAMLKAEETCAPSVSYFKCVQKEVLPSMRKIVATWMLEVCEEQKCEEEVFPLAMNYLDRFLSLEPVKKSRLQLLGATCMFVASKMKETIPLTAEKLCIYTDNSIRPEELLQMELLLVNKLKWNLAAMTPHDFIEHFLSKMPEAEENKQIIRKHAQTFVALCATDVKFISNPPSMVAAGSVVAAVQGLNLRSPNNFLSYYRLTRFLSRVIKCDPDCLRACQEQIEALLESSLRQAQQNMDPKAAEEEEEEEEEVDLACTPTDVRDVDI

cdk2/cyclinA = cdk2/cyclinA (Homo sapiens, UniProt P24941); assay: Cyclin-Dependent Kinase Assay cdk2/cyclinA; assay type: biochemical
cdc2/cyclinB = cdc2/cyclinB (Homo sapiens, UniProt P06493); assay: Cyclin-Dependent Kinase Assay cdc2/cyclinB; assay type: biochemical
Chain of cdc2/cyclinB (P06493 whole entry): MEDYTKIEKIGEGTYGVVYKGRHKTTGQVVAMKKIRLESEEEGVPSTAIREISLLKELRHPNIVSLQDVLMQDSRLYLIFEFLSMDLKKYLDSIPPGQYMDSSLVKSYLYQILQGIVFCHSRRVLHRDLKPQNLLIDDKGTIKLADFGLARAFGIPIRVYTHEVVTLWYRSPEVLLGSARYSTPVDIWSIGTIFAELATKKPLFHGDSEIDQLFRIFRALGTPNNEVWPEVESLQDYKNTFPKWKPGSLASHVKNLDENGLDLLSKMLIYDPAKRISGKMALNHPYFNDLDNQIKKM
Chain of cdc2/cyclinB (P14635 whole entry, further chain): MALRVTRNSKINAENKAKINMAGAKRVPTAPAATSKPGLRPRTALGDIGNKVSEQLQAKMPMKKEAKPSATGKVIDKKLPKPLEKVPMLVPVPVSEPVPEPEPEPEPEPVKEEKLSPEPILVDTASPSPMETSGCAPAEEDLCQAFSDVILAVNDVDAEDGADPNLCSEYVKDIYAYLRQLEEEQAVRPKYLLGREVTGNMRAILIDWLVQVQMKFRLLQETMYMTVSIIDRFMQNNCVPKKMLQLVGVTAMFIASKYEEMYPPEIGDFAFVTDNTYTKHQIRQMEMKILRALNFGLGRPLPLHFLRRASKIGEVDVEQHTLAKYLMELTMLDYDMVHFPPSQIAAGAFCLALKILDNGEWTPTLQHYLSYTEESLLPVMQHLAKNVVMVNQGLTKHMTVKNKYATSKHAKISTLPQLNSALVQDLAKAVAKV

c-Src = molecular target: T3, c-Src (Homo sapiens, UniProt P12931); assay: c-Src protein kinase assay; assay type: biochemical; details: poly GluTyr substrate, 5 µM ATP
T3 construct: made in house; host or cells: baculovirus infected insect cells
T3 sequence (P12931 whole entry): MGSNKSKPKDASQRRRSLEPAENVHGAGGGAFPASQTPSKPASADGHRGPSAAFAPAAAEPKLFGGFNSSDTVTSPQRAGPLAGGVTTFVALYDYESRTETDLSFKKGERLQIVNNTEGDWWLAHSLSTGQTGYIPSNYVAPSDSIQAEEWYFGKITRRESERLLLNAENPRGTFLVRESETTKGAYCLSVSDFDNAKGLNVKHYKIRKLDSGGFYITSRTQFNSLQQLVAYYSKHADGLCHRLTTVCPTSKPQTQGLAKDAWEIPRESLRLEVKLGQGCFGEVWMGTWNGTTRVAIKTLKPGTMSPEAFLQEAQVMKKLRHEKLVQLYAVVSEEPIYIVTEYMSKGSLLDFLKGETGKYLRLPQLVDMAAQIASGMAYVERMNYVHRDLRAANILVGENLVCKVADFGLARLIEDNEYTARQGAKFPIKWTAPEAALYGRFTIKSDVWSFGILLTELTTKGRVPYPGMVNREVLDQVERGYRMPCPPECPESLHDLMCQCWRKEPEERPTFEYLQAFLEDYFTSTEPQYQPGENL
Method: The assay was carried out as follows: c-Src kinase was purified from baculovirus infected insect cell lysates using an antipeptide monoclonal antibody directed against the N-terminal amino acids (amino acids 2-17) of c-Src. The antibody, covalently linked to 0.65 µm latex beads, was added to a suspension of insect cell lysis buffer comprised of 150 mM NaCl, 50 mM Tris pH 7.5, 1 mM DTT, 1% NP-40, 2 mM EGTA, 1 mM sodium vanadate, 1 mM PMSF, 1 µg/mL each of leupeptin, pepstatin, and aprotinin. Insect cell lysate containing c-Src protein was incubated with these beads for 3 to 4 hours at 4°C with rotation. At the end of the lysate incubation, the beads were rinsed three times in lysis buffer, resuspended in lysis buffer containing 10% glycerol, and frozen. These latex beads were thawed, rinsed three times in assay buffer (40 mM Tris, pH 7.5, […]) and suspended in the same buffer. In a Millipore 96-well plate with a 0.65 µm polyvinylidine membrane bottom were added the reaction components: 10 µL c-Src beads, 10 µL of 2.5 mg/mL poly GluTyr substrate, 5 µM ATP containing 0.2 µCi labeled ^32P-ATP, 5 µL DMSO containing inhibitors or as a solvent control, and buffer to make the final volume 125 µL. The reaction was started at room temperature by addition of the ATP and quenched 10 minutes later by the addition of 125 µL of 30% TCA, 0.1 M sodium pyrophosphate for 5 minutes on ice. […] The filters were then punched, counted in a liquid scintillation counter, and the data examined for inhibitory activity in comparison to a known inhibitor such as erbstatin. […]

[4] = retinoblastoma substrate, read-out: IC50 (µM) cdk2/E
[5] = 25 µM ATP, retinoblastoma substrate, read-out: IC50 (µM) cdk4/D
[6] = retinoblastoma substrate, read-out: IC50 (µM) cdk2/A
[7] = retinoblastoma substrate, read-out: IC50 (µM) cdkl/B

IC50 [2] [µM]	IC50 (cdk2/cyclinE; [4]) [µM]	IC50 (cdk4/D; [5]) [µM]	IC50 (cdk2/cyclinA; [6]) [µM]	IC50 (cdc2/cyclinB; [7]) [µM]	SMILES	IC50 [1] [nM]	IC50 [3] [µM]	IC50 (c-Src) [nM]	IC50 (cdk2/cyclinE) [µM]	IC50 (cdk4/D) [µM]	IC50 (cdk2/cyclinA) [µM]	IC50 (cdc2/cyclinB) [µM]
0.06					CCN(CC)CCCCNc1ncc2c(n1)N(CC)C(=O)N(c1cc(OC)cc(OC)c1)C2 [Example 53, 7-(4-Diethylamino-butylamino)-3-(3,5-dimethoxy-phenyl)-1-ethyl-3,4-dihydro-pyrimido[4,5-d]pyrimidin-2(1H)-one]	192	5					
0.37	1.38	0.05	0.83	7.51	CN1CCN(c2ccc(Nc3ncc4cnc(=O)n(C5CCCC5)c4n3)cc2)CC1 [Example 32, 1-Cyclopentyl-7-[4-(4-methylpiperazin-1-yl)phenylamino]pyrimido-[4,5-d]pyrimidin-2(1H)-one]		1.63	3950				
					O=C1NCc2cnc(Nc3ccc(N4CCCC(O)C4)cc3)nc2N1C1CCCC1 (stereo not drawn) [Example 16, 1-Cyclopentyl-7-[4-(3-hydroxypiperidin-1-yl)phenylamino]-3,4-dihydropyrimido[4,5-d]pyrimidin-2(1H)-one]		0.83	4120	1.5	0.63	0.64	14.9
					O=c1ncc2cnc(Nc3ccc(N4CCC(CCN5CCOCC5)CC4)cc3)nc2n1C1CCCC1 [Example 39]		3.76	3230	1.85	0.3	1.44	24.6
0.023	2.12	0.039	0.76	11.6	CN1CCN(c2ccc(Nc3ncc4c(n3)N(C3CCCC3)C(=O)NC4)cc2)CC1 [Example 11, 1-Cyclopentyl-7-[4-(4-methylpiperazin-1-yl)phenylamino]-3,4-dihydropyrimido[4,5-d]pyrimidin-2(1H)-one]		0.175	710				

SMILES	IC50 [2] [µM]	IC50 (cdk2/cyclinE; [4]) [µM]	IC50 (cdk4/D; [5]) [µM]	IC50 (cdk2/cyclinA; [6]) [µM]	IC50 (cdc2/cyclinB; [7]) [µM]	IC50 [1] [nM]	IC50 [3] [µM]	IC50 (c-Src) [nM]	IC50 (cdk2/cyclinE) [µM]	IC50 (cdk4/D) [µM]	IC50 (cdk2/cyclinA) [µM]	IC50 (cdc2/cyclinB) [µM]
O=c1ncc2cnc(Nc3ccc(N4CCCC(O)C4)cc3)nc2n1C1CCCC1 (stereo not drawn) [Example 35, 1-Cyclopentyl-7-[4-(3-hydroxypiperidin-1-yl)phenylamino]pyrimido[4,5-d]-pyrimidin-2(1H)-one]	3.49						2.8	4650	1.05	0.082	0.99	8.54
CC(C)n1c(=O)ncc2cnc(Nc3ccc(N4CCC(N(C)C)CC4)cc3)nc21 [Example 41, 7-{4-[4-(Dimethylamino)piperidin-1-yl]phenylamino}-1-isopropyl-pyrimido[4,5-d]pyrimidin-2(1H)-one]	11.7						> 50	3060	> 40		14.8	> 40
